Test results reported in patent US20010012631A1, “Plant clonal lines and plants having elevated secondary metabolite levels” (University of Massachusetts Medical Center, a Massachusetts …, priority 1997, published 2001).
Where two headings read alike, the source gives them in different places.

How the values were obtained:
oregano clonal lines [1] = assay: Selection for A2C tolerance: total phenolic content of about 100 oregano clonal lines; assay type: cell-based; conditions: small fraction of about 100 oregano lines, 200 μM A2C, 30 days
Protocol: Total phenolic content can be measured, for example, using Folin-Ciocalteu reagent essentially as described in Chandler and Dodds, Plant Cell Rep. 2:105-108 (1983) and Shetty, K., Ph.D., Thesis, University of Idaho (1989). The tissue is disrupted in 95% ethanol and centrifuged to remove particulate matter. An aliquot of the ethanol supernatant is mixed with an equal volume of Folin-Ciocalteu reagent, and incubated at 25° C. A 5% sodium carbonate can be added to stabilize color development. Absorbance of the solution is measured at 725 nm is a spectrophotometer. A standard curve is developed using various concentrations of gallic acid in 95% ethanol. Absorbance values are converted to mg total phenolics/g fresh weight (FW) tissue from the standard curve.
(§1) About 100 oregano clonal lines are initiated as described in Example 1. Lines are maintained on MS medium containing BAP as described in Example 1. At the end of a subculture cycle, 50 shoot propagules of each clonal line are transferred to half-strength hormone-free MS medium containing 200 μM A2C. Propagules are then cultured for 30 days as described in Example 1, and assayed for RA content as described in Example 1. Total phenolic content is measured as described in U.S. application Ser. No. 08/771,241, filed Dec. 20, 1996, incorporated herein by reference.

[2] = test system: regenerated plants of oregano clone 0-1 and five tolerant clones; assay: Field treatment: RA content of leaf tissue of regenerated oregano plants; assay type: in vivo; conditions: field plants sprayed with solution of A2C about 50 μm, Nonidet P40, EMC about 0.5% w/v; leaf tissue after 7 days; fresh weight and dry weight basis
Protocol: About 100 regenerated plants of oregano clone 0-1, and the five tolerant clones of Example 7 are removed from a greenhouse, and planted outdoors in a field during the spring, and summer growing season. Plantings are carried out using a randomized block design. Plants are fertilized weekly, but are not irrigated. About 7 days before flower emergence, half of the plants of each line are sprayed with an aqueous solution comprising A2C, Nonidet P40™, and EMC prepared from strain F. A2C is present at about 50 μm, and EMC is present at about 0.5% w/v. Each plant receives about 1 to 2 ml on the upper surface of the leaves. The remaining control plants are treated by spraying an aqueous solution that contains no A2C and no EMC. Spraying is carried out such that there is little or no carryover to adjacent plants.
After 7 days, leaf tissue from A2C-treated and control plants is harvested, and analyzed for total phenolic content, and RA content as described in Example 7. […] The plant-to-plant variation among A2C-treated plants of each line is about 5% to about 15%.

thyme clonal line M-3 [3] = assay: Morphological abnormalities / tolerance of cultured shoots, thyme line M-3; assay type: cell-based; conditions: thyme line M-3, 200 μM A2C
Protocol: Pseudomonas tolerance of Pseudomonas-treated shoots was determined by visual observation with a stereomicroscope (Olympus-SZ40, Tokyo, Japan) at a magnification of 34X. Cultured shoots were evaluated for morphological abnormalities, including malformation, necrosis, and chlorophyll deficiency. The response of individual tissue propagules to Pseudomonas contact was similar within each line, i.e., there was little or no variation among tissue propagules within each line.
(§2) Individual shoot propagules of each clonal line were transferred to half-strength hormone-free MS media supplemented with A2C and cultured for 30 to 45 days. RA content and morphological abnormalities were determined at the end of the culture period as described in Example 1.

[4] = test system: phenylalanine ammonia lyase (PAL); assay type: cell-based, oregano; conditions: A2C 50 μM
Protocol: These enzymes are involved in synthesis of phenolic secondary metabolites (PAL) and in the pentose phosphate pathway (G-6-PDH).
One gm fresh weight of leaves were ground to a powder in liquid nitrogen, and homogenized in 0.1 M Tris-HCl buffer (pH 7.4) containing 1 mM phenylmethyl-sulfonyl fluoride (PMSF), 0.1% polyvinylpyrrolidone (PVP, to remove phenolics and polysaccharides) and 1 mM dithiothreitol (DTT). Extracts were centrifuged at 15,000×g for 20 minutes, and supernatants (5 ml) were partially purified through a PD 10 column (Pharmacia, Inc., NJ). Protein was eluted from the column using 5 ml of 0.1 M Tris-HCl, pH 8.5, which is close to the pH optimum of plant glucose-6-phosphate dehydrogenase (pH 8.0-8.2) and PAL (pH 8.8).
Phenylalanine ammonia-lyase (PAL) activity in the protein extract was assayed based on the conversion of L-phenylalanine (6.67 mM) to trans cinnamic acid. The reaction was carried out at 30° C. in borate buffer (33 mM), pH 8.8 with L-phenylalanine as substrate and the change in absorbance at 290 nm was measured. PAL was expressed as nanomoles of trans-cinnamic acid formed per minute per milligram of protein. Protein was determined by the Bradford dye-binding method using bovine serum albumin as a standard.

[5] = test system: rosemary clonal line R-15; assay: RA content of shoot propagules, rosemary clonal line R-15; assay type: cell-based; conditions: 30 to 45 days
Protocol: (§3) Samples of Pseudomonas-treated and untreated control shoots from each line were assayed for rosmarinic acid content and proline content. Rosmarinic acid was extracted from 50 mg of fresh shoot tissue using 2 ml of 50% (v/v) methanol and incubating for 1 hour at 55° C. One ml of the methanol extract was diluted 1:18 and the absorbance of the diluted extract was measured at 333 nm in a Genesys spectrophotometer (Spectronic Instruments, Rochester, N.Y.). The concentration of RA in the extract was calculated using an extinction coefficient of ε333=19,000 τmol^−1cm^−1. Values for the concentration of RA for each treatment/clonal line shown in the Tables and Figures of this application are the average of at least 5 separate extracts. Total rosmarinic acid content was expressed as % g/g fresh weight (FW) of tissue.
(§4) Three clonal thyme lines and five rosemary clonal lines were isolated and maintained in culture as described in U.S. application Ser. No. 08/771,241, filed Dec. 20, 1996 and incorporated herein by reference.
as §2

rosemary clonal line R-1 = assay: RA content of shoot propagules, rosemary clonal line R-1; assay type: cell-based; conditions: 30 to 45 days
Protocol: as §3, §4, §2

oregano clonal lines [6] = assay: Selection for A2C tolerance: RA content of about 100 oregano clonal lines; assay type: cell-based; conditions: small fraction of about 100 oregano lines, 200 μM A2C, 30 days
Protocol: as §3, §1

thyme clonal line T-16G = assay: RA content of shoot propagules, thyme clonal line T-16G; assay type: cell-based; conditions: thyme T-16G, 30 to 45 days, ± SD
Protocol: as §3, §4, §2

thyme clonal line M-3 [7] = assay: RA content of shoot propagules, thyme clonal line M-3; assay type: cell-based; conditions: 30 to 45 days
Protocol: as §3, §4, §2

rosemary clonal line R-7 = assay: RA content of shoot propagules, rosemary clonal line R-7; assay type: cell-based; conditions: 30 to 45 days, ± SD
Protocol: as §3, §4, §2

In the case of O=C(O)C1CCN1 (stereo not shown) [A2C, azetidine-2-carboxylic acid], the “increase in total phenolic content on a fresh weight basis vs tissue cultured in the absence of A2C” value (oregano clonal lines [1]) is reported as “at least 2 fold”, the “RA vs control tissue” value [2] is reported as “at least 2 fold” and the “survival of line in culture” value (thyme clonal line M-3 [3]) is reported as “killed”. The PAL specific activity ([4]; 10 days of culture treatment) was 2.83 nanomoles cinnamate/min/mg protein, the PAL specific activity ([4]; 25 days of culture treatment) was 2.64 nanomoles cinnamate/min/mg protein and the “RA Levels” value ([5]; rosemary R-15, A2C 100 μM, ± SD) was 9.4 ± 0.6 mg/g FW. The “RA Levels” value ([5]; rosemary R-15, A2C 200 μM) was “inhibited”, the “RA Levels” value (rosemary clonal line R-1; rosemary R-1, A2C 100 μM, ± SD) was 4.9 ± 0.5 mg/g FW and the “RA Levels” value (rosemary clonal line R-1; rosemary R-1, A2C 200 μM) was “inhibited”. The “increase in RA content on a fresh weight basis vs tissue cultured in the absence of A2C” value (oregano clonal lines [6]) was “at least 2 fold”, the “RA Levels” value (thyme clonal line T-16G; A2C 100 μM) was 3.1 ± 0.4 mg/g FW and the “RA Levels” value (thyme clonal line T-16G; A2C 200 μM) was 3.7 ± 0.4 mg/g FW. The “RA Levels” value (thyme clonal line M-3 [7]; thyme M-3, A2C 100 μM, ± SD) was 2.4 ± 0.5 mg/g FW, the “RA Levels” value (thyme clonal line M-3 [7]; thyme M-3, A2C 200 μM) was “inhibited” and the “RA Levels” value (rosemary clonal line R-7; rosemary R-7, A2C 100 μM) was 6.8 ± 1.1 mg/g FW. The “RA Levels” value (rosemary clonal line R-7; rosemary R-7, A2C 200 μM) was 7.9 ± 2.0 mg/g FW.
